In patent US8658672B2, “HIF-1α activating agent” (University of Seoul Foundation of Industrial and Academic …, priority 2006, dated 2014):
Like-named read-outs stand apart in the source and are kept apart here.

How the values were obtained:
[1] = system: CAM (choriallantoic membrane); settings: CAM assay; for angiogenesis: filter paper with 10 or 50 μM solution 10 μl, three days
Description: Particularly, the fertilized egg was incubated in a 37° C. 55% humid incubator. 10 days later, the egg albumin was removed by using a 2 ml hypodermic syringe in order to separate CAM and yolk sac from the shell membrane. On 10.5th day, the egg shell was removed (1 cm^2). […] Three days later, 1-2 ml of 10% fat emulsion was injected into chorioallantoic membrane, followed by observation under a microscope.

[2] = system: VEGF; settings: 50 μM; cell line not clearly stated (SH-SY5Y implied)
Description: Total RNA was extracted by using RNase Spin column (Qiagen, USA). cDNA was synthesized from 1 μg of the extracted RNA using AMV reverse transcriptase (Promega, USA) and random hexamer (Gibco-BRL, USA). RT-PCR was performed using the synthesized cDNA as a template with a VEGF forward primer represented by SEQ. […] NO: 1 (5′-[sequence]-3′) and a VEGF reverse primer represented by SEQ. […] NO: 2 (5′-[sequence]-3′). RT-PCR conditions were as follows; predenaturation at 95° C. for 5 minutes, denaturation at 95° C. for 45 seconds, annealing at 56° C. for 45 seconds, polymerization at 72° C. for 60 seconds, 30 cycles from denaturation to polymerization. For the control, RT-PCR was performed again with an 18S forward primer represented by SEQ. […] NO: 3 (5′-[sequence]-3′) and an 18S reverse primer represented by SEQ. […] NO: 4 (5′-[sequence]-3′). RT-PCR conditions were as follows; predenaturation at 95° C. for 5 minutes, denaturation at 95° C. for 45 seconds, annealing at 56° C. for 45 seconds, polymerization at 72° C. for 60 seconds, 30 cycles from denaturation to polymerization.

[3] = system: HRE (hypoxia-response element); assay: HRE dependent gene expression in HepG2 hepatoma cells (luciferase reporter gene assay); format: cell-based, human; settings: p(HRE)4-luc, TPEN 5, 10 μM, CQ 10, 50 μM, 16 hours
Description: Human HepG2 hepatoma cells were grown to the density of 5×10^4 and then transfected with 100 ng of HRE-driven reporter plasmid, p(HRE)4-luc together with plasmid pCHO110 which encodes β-galactosidase. The transfected human HepG2 hepatoma cells were cultured under normoxic condition and hypoxic condition and then treated with TPEN (5, 10 μM) and CQ (10, 50 μM) for 16 hours each. 48 hours after the transfection, luciferase activities were analyzed using the reporter gene assay system (Promega, USA) and normalized by β-galactosidase activities.

[4] = used as an antibiotic in the mid-1900s, Japan; cited from earlier work
[5] = system: GAL4-HIF-1α; assay: HIF-1α transactivation, Gal4-driven reporter gene assay in HepG2 cells; format: cell-based, human; settings: normoxic condition, CQ 10, 50 μM, TPEN 5 μM, 16 hours
Description: Human HepG2 hepatoma cells were cultured at the concentration of 5×10^4, which were transfected with 100 ng of Gal-4-driven reporter plasmid encoding the firefly luciferase gene under the control of the Gal4 binding site together with pGal4/HIF-1α plasmid which expresses HIF-1α linked to the DNA binding domain of the yeast Gal4 protein (amino acids 1-147). The transfected human HepG2 hepatoma cells were incubated in both normoxic and hypoxic conditions and then treated with CQ (10, 50 μM) for 16 hours in normoxic condition. 48 hours after the transfection, luciferase activities were analyzed using the reporter gene assay system (Promega, USA) and normalized by β-galactosidase activities.

[6] = system: VEGF; settings: normoxic condition, CQ 10, 50 μM, 16 hours; HepG2 and SH-SY5Y cells
Description: (§1) Total RNA was extracted by using RNase Spin column (Qiagen, USA). VEGF expression was investigated by Northern blot analysis. Northern blot hybridization was performed using ^32P-labeled VEGF cDNA probe and ^32P-labeled EPO cDNA probe. The Northern blotting was performed by the conventional method well known to those in the art (Sambrook et al., Molecular cloning, 1989).

[7] = system: EPO; settings: normoxic condition, CQ 10, 50 μM, 16 hours; HepG2 and SH-SY5Y cells
Description: as §1

[8] = cited from earlier work
[9] = system: patients with Alzheimer's disease; settings: phase II clinical trial; cited from earlier work
[10] = target: T1, FIH-1 (Homo sapiens, UniProt Q9NWT6); assay: In vitro FIH-1 activity (capture of radio-labeled HIF-1α by GST-CBP); format: biochemical; set-up: histidine tag; made in house; host or cells: E. coli
Description: The human FIH-1 gene (AF395830) was cloned into pET28a vector (Novagen, USA) and FIH-1 was overexpressed in E. coli as a histidine-tagged fusion protein and purified by Ni-affinity chromatography. The fusion protein was purified by gel-filtration chromatography (Hi-Load Superdex 200) and concentrated by ultrafiltration (Choi et al., Mol Pharmacol 68:1803-1809, 2005).
The resin-bound GST-CBP N-domain (amino acids 1-450) (Kamei et al., Cell 85:403-414, 1996) was then added to 1 μg of each mixture in 500 μl of binding buffer (200 mM Tris-HCl (pH 8.0), 150 mM NaCl, 20 μM ZnCl2, 0.5 mM DTT) and incubation continued for one hour at 4° C. Glutathione-uniflow resin bound protein was washed four times with 1 ml of 0.1% Nondiet P-40 containing binding buffer, and visualized by SDS-PAGE by eluting using SDS sample buffer (Dann et al., Proc Natl Acad Sci USA 99:15351-15356, 2002). The present inventors substituted the asparagine-803 residue of HIF-1α with alanine to generate HIF-1α mutant [HIF-1α-C(N803A)], followed by investigation on FIH-1 activity by the same manner as described above.
Radio-labeled HIF-1α was reacted with the purified recombinant FIH-1, in the presence or absence of CQ or TPEN. FIH-1 was expected to […] the asparagine-803 residue of HIF-1α and thus inhibit the interaction with CBP binding to HIF-1α transactivation domain (Mahon, P. C. et al., Genes Dev. 15, 2675-2686, 2001; Dannm C. E. R., et al., Proc. Natl. Acad. Sci. USA 99, 15351-15356, 2002; Lando, D., et al., Science 295, 858-861, 2002; Freedman, S. J. et al., Proc. Natl. Acad. Sci. USA 99, 5367-5372, 2002).

[11] = system: human cancer cell lines; settings: several human cancer cell lines; cited from earlier work
[12] = target: T1, FIH-1; settings: F-HIF-1α peptide 4 μM, recombinant FIH-1, MALDI-TOF
Description: The present inventors examined FIH-1 activity by measuring the asparagine hydroxylation of F-HIF-1α peptide. The peptide hydroxylation was measured by mass spectrophotometry.
Particularly, F-HIF-1α (788-822 amino acids: FITC-aca-[sequence]) containing fluorescein and aca (aminocaproic acid) linker (AnyGen, KwangJu, Korea) at N-terminal was reacted with FIH-1 protein. The F-HIF-1α peptide was incubated at a final concentration of 4 μM with 2.8 μg of recombinant FIH-1 in reaction solution [20 mM Tris buffer (pH 7.5), 5 mM KCl, 1.5 mM MgCl2, 100 μM α-ketoglutarate and 400 μM ascorbic acid: final volume 50 μl]. After incubation with agitation for 2 hours at room temperature, excess salts were removed with ZipTipC18 (Millipore, USA). The F-HIF-1α peptide was eluted from the tip with a-cyano-4-hydroxycinnamic acid in acetonitrile/water (50:50 v/v) containing 0.1% TFA followed by washing with distilled water containing 0.1% TFA. The eluted peptide solution was transferred to a MALDI sample plate and MALDI-TOF measurements were performed with a Voyager analyzer (Applied Biosystems, USA).

[13] = in vivo; cited from earlier work
[14] = system: APP2576 transgenic mice; settings: cited from earlier work
[15] = system: VEGF; assay: Effects of CQ and TPEN on the expression of VEGF, a HIF-1α target gene (RT-PCR); format: cell-based, human; settings: TPEN 5 μM
From the text: ID. […] ID. NO: 2 (5′-[…]-3′). […] ID. […] ID. NO: 4 (5′-[…]-3′).

[16] = 10 μM solution 10 μl (lower amount, 30.3-39.7 ng)
[17] = 50 μM solution 10 μl (higher amount, 151.5-198.5 ng)

T1 sequence (Q9NWT6 whole entry, the tested form may be a part): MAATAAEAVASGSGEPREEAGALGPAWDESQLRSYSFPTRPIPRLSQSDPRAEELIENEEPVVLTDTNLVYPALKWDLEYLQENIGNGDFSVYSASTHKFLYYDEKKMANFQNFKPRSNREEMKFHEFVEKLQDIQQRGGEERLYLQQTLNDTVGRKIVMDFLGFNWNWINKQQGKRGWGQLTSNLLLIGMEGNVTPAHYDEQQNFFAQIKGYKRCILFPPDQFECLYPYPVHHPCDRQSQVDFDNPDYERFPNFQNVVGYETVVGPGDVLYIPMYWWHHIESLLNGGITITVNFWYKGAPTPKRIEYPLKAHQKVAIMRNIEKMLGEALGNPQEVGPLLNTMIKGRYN

## Oc1c(I)cc(I)c2cccnc12 [B, 5,7-diiodo-8-hydroxyquinoline]
[1]; [16]
  Angiogenesis/total (No.): 5/7
[1]; [17]
  Angiogenesis/total (No.): 4/6
[1]
  angiogenesis: promote angiogenesis

## Oc1c(Br)cc(Br)c2cccnc12 [C, 5,7-dibromo-8-hydroxyquinoline]
[1]; [16]
  Angiogenesis/total (No.): 4/6
[1]; [17]
  Angiogenesis/total (No.): 3/5
[1]
  angiogenesis: promote angiogenesis
[2]
  VEGF expression, % to the expression level induced by CQ: 60-70%

## Oc1c(I)cc(Cl)c2cccnc12 [CQ, 5-chloro-7-iodo-8-quinolinol]
[1]; [16]
  Angiogenesis/total (No.): 8/12
[1]; [17]
  Angiogenesis/total (No.): 8/12
[1]
  angiogenesis: promote angiogenesis
[3]
  HIF-1α dependent hypoxia-response element (HRE) activity: induced HIF-1α dependent hypoxia-response element (HRE) activity
[4]
  adverse effect in people: caused subacute myelo-optic neuropathy
[5]
  transactivation activity of HIF-1α: increased transactivation activity of HIF-1α
[6]
  expression of VEGF: increased expressions of VEGF and EPO
[7]
  expression of EPO: increased expressions of VEGF and EPO
[8]; Ca^2+
  pKa value, Ca2+: 8.1
[8]; Cu^2+
  pKa value, Cu2+: 15.8
[8]; Mg^2+
  pKa value, Mg2+: 8.6
[8]; Zn^2+
  pKa value, Zn2+: 12.5
[9]
  cognitive decline: slowed cognitive decline
  plasma amyloid beta concentrations: decreased plasma amyloid beta concentrations
[10]; CQ 10 μM and 50 μM, interaction between HIF-1α and CBP as readout
  FIH-1 activity: FIH-1 activity was reduced
[10]; HIF-1α-C(N803A) mutant, presence or absence of CQ or FIH-1
  interaction between CBP and HIF-1α-C(N803A) mutant: did not change the interaction between CBP and HIF-1α-C (N803A)
[10]; co-treatment with Cu(II)
  effect of Cu(II) on the inhibition of FIH-1 activity by CQ: failed to reverse the inhibitory effect of CQ
[10]; co-treatment with Zn(II)
  effect of Zn(II) on the inhibition of FIH-1 activity by CQ: failed to reverse the inhibitory effect of CQ
[11]
  apoptotic cell death: causes apoptotic cell death
[12]
  asparagine-hydroxylating activity of FIH-1: inhibits the asparagine-hydroxylating activity of FIH-1
[13]
  crossing of the blood-brain barrier: able to cross the blood-brain barrier
[14]
  amyloid beta plaques and serum levels of amyloid beta: reduced both amyloid beta plaques and serum levels of amyloid beta
  systemic adverse effects: without systemic adverse effects
[15]; HepG2 cells, normoxic, CQ 10, 100 μM
  VEGF expression: differed in their effects on VEGF expression
[15]; SH-SY5Y cells, normoxic condition, CQ 10, 100 μM
  VEGF expression: increased VEGF expression
[15]; hypoxic condition, 16 hours, CQ 100 μM, SH-SY5Y and HepG2 cells
  VEGF expression: none of the control, TPEN and CQ increased VEGF expression
